Assays:
Assay type in all cases: cell-based
[1] = molecular target: T1, ATP-dependent translocase ABCB1 (Homo sapiens, UniProt P08183); experiment: Inhibition of human MDR1 expressed in mouse L5178 cells assessed as rhodamine-123 accumulation measured as fluorescence activity ratio at 20 uM after 20 mins by flow cytometry relative to control; conditions: l5178, 20 min
[2] = molecular target: T1, ATP-dependent translocase ABCB1; experiment: Inhibition of human MDR1 expressed in mouse L5178 cells assessed as rhodamine-123 accumulation measured as fluorescence activity ratio at 2 uM after 20 mins by flow cytometry relative to control; conditions: l5178, 20 min
[3] = Cytotoxicity against sensitive mouse L5178 cells after 24 hrs by MTT assay; conditions: l5178, 24 h
[4] = Cytotoxicity against multidrug resistant mouse L5178 cells after 24 hrs by MTT assay; conditions: l5178, 24 h

T1 sequence (P08183 whole entry): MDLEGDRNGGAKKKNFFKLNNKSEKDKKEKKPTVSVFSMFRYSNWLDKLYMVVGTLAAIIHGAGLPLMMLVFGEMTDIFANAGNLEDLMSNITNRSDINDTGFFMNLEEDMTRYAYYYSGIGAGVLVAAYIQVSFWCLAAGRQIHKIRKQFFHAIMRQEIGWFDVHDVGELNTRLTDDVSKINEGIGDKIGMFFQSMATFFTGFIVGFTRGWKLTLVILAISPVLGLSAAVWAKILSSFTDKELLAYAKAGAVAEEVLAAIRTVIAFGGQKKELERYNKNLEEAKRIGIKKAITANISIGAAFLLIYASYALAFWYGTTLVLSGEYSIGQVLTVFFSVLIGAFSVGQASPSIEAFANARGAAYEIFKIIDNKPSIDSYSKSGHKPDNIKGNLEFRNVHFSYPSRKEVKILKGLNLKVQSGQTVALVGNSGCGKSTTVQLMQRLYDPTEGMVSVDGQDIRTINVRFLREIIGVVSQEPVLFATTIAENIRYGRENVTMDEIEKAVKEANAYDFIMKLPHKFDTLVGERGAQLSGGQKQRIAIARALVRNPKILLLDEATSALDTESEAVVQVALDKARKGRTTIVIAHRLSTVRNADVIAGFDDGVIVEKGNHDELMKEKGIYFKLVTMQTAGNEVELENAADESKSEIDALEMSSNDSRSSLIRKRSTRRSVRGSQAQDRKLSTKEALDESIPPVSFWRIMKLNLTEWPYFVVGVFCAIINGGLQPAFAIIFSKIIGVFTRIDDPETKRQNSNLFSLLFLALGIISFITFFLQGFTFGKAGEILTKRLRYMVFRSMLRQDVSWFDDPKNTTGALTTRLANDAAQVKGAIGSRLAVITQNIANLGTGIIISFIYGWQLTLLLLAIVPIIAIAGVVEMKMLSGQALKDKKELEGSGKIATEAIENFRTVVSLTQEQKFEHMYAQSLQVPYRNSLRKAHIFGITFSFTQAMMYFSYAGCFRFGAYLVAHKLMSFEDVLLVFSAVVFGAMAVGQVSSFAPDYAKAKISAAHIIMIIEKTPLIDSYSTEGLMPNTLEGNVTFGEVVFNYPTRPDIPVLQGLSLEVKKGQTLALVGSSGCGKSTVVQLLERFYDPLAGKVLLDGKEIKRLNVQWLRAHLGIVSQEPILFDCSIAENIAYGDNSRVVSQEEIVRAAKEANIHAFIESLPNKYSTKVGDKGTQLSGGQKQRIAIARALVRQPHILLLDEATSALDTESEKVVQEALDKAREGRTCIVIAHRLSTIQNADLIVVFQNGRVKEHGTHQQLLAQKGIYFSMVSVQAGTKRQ

Structure (SMILES)	Ratio [1]	Ratio [2]	Activity [3] [µM]	Activity [4] [µM]
COC(=O)CN1C(=O)N(CC(O)CN2CCN(c3ccccc3)CC2)C(c2ccccc2)(c2ccccc2)C1=O (centres undefined)	90.43	72.64	33	67
COc1ccccc1N1CCN(CC(O)CN2C(=O)N(CC(=O)O)C(=O)C2(c2ccccc2)c2ccccc2)CC1 (centres undefined)	0.86	0.84	> 100	> 100
COC(=O)CN1C(=O)N(CCCN2CCN(c3ccccc3)CC2)C(c2ccccc2)(c2ccccc2)C1=O	116.27	89.34	40	> 100
COC(=O)CN1C(=O)N(CCCCN2CCN(c3ccccc3)CC2)C(c2ccccc2)(c2ccccc2)C1=O	99.82	77.15	13	26
COc1ccccc1N1CCN(CCCCN2C(=O)N(CC(=O)O)C(=O)C2(c2ccccc2)c2ccccc2)CC1	2.04	1	> 100	> 100
COC(=O)CN1C(=O)N(CCCCN2CCN(c3ccccc3F)CC2)C2(C1=O)c1ccccc1-c1ccccc12	72.04	35.38	58	84
O=C(O)CN1C(=O)N(CCCCN2CCN(C(=O)c3ccco3)CC2)C2(C1=O)c1ccccc1-c1ccccc12	0.69	0.68	> 100	> 100
COC(=O)CN1C(=O)N(CCCCN2CCN(c3ccccc3)CC2)C2(C1=O)c1ccccc1-c1ccccc12	70.19	21.61	53	> 100
COC(=O)CN1C(=O)N(CCCCN2CCN(c3cccc(Cl)c3Cl)CC2)C(c2ccccc2)(c2ccccc2)C1=O	98.11	132.85	18	40
COC(=O)CN1C(=O)N(CCCCN2CCN(C(=O)c3ccco3)CC2)C2(C1=O)c1ccccc1-c1ccccc12	24.89	1.86	59	63
COC(=O)CN1C(=O)N(CCCCN2CCN(c3ccc(F)cc3)CC2)C2(C1=O)c1ccccc1-c1ccccc12	71.11	19.4	40	56
COC(=O)CN1C(=O)N(CCCCN2CCN(c3ccccc3F)CC2)C(c2ccccc2)(c2ccccc2)C1=O	99.09	102.74	> 100	> 100
COc1ccc(CCN(C)CCCC(C#N)(c2ccc(OC)c(OC)c2)C(C)C)cc1OC (centres undefined) [VERAPAMIL]	17.59			

— ChEMBL document CHEMBL3797155, “The 5-aromatic hydantoin-3-acetate derivatives as inhibitors of the tumour multidrug resistance efflux pump P-glycoprotein (ABCB1): Synthesis, crystallographic and biological studies” (Bioorg Med Chem, 2016)
